{
  "source": "patent US11969460B2",
  "about": "“Methods and compositions for treating decreased cognitive ability” (Saint Louis University, priority 2018, dated 2024)",
  "key": {"[1]": {"test_system": "male C57BL/6J (B6) mice, aged 18 months", "assay": "Aversive T-maze acquisition after exogenous adropin^34-76 treatment", "type": "in vivo, mouse", "description": "(§1) Memory retention and acquisition were assessed using an aversive T-maze and novel objective recognition, as previously described (Farr et al., (2016) J Alzheimers Dis.; 54(4):1339-1348). Briefly, the T-maze consists of a black plastic alley with a start box at one end and two goal boxes at the other. An electrifiable floor of stainless steel rods run throughout the maze to deliver a foot-shock using a scrambled grid floor shocker (Model E13-08, Coulbourn Instruments, Whitehall, PA). Mice are not permitted to explore the maze prior to training. A block of training trials begins when mice are placed in the start box. The guillotine door is raised and a cue buzzer sounded simultaneously (doorbell type, at 55 dB); 5s later a mild aversive foot-shock is applied with an intensity of 0.35 mA. The arm of the maze entered on the first trial is designated “incorrect” and the mild foot-shock continued until the mouse enters the other goal box, which in all subsequent trials is designated “correct” for each mouse. Mice are trained until they made one active avoidance, with an inter-trial interval of 30-35s. The number of trials to make one active avoidance is the measure of acquisition. Retention is tested 7d later, with training continued until the criterion of making five active avoidances in six consecutive trials is achieved. The number of trials needed to reach this criterion is the measure of retention(Butler et al., (2012) The Journal of clinical endocrinology and metabolism.; 97(10):3783-3791; Wong et al., (2014) The Journal of biological chemistry.; 289(37):25976-25986).\n(§2) To examine the effects of […] adropin on a subject's cognitive ability, 34 male C57BL/6J (B6) mice, aged 18 months, were treated with exogenous adropin^34-76. Mice were purchased from The Jackson Laboratory (Bar Harbor, ME). After acclimation for 1 month, mice were separated into two weight matched groups of 15 mice: Group 1 adropin^34-76 treatment group and Group 2 saline vehicle control.\n(§3) The mice were administered a single intraperitoneal injection (volume 100 μl) each morning (0900h) for 4 weeks. Group 1 was administered adropin^34-76 at a dose of 90 nmol/kg/day. Group 2 was administered saline. The peptide was purchased from Neoscientific Inc. Behavioral testing began after 2 weeks of injections. Injections continued though testing until 4 weeks.\nMice prepared with adropin or placebo in Example 3 were subjected to the Acquisition T-maze test."}, "[2]": {"test_system": "male C57BL/6J (B6) mice, aged 18 months", "assay": "Aversive T-maze retention after exogenous adropin^34-76 treatment", "type": "in vivo, mouse", "design": "key to T-maze Retention, Difference between means (Adropin vs. Vehicle): difference in trials to criterion, adropin minus vehicle; key to T-maze Retention: number of trials to reach criterion (5 avoidances in 6 trials)", "description": "as §1, §2, §3\n(FIG. 12, Table 3) Mice were retested in the maze after 7 days and Adropin treated mice retained learned memories and complete the maze in lets time."}, "mice [3]": {"test_system": "mice", "assay": "Tolerability of adropin^34-76 doses in mice", "type": "in vivo, mouse", "text": "Using mice, the Inventors have shown that administration of adropin^34-76, in doses as low as 90 nmol/kg/day, delivered as two 45 nmol/kg injections, can be effective in producing changes in metabolism. Dose as high as 900 nmol/kg/d are well tolerated in mice. While the doses required for a desired clinical effect in humans is expected to vary between patients, the 90 nmol/kg dose administered by subcutaneous, intramuscular, or intravenous injection, either once or twice a day, may represent a preferred treatment protocol. It is anticipated that the treatments would be administered daily, although long-acting formulations involving weekly injections are envisaged. The optimum dose and frequency for a particular subject may be determined by the patient's treating physician, based on the patient's cognitive response. It is anticipated that adropin therapy may or may not improve a subject's cognitive function relative to current baseline, however adropin therapy may result in significant delays in the advancement of the disease. Improvement may manifest as a significant delay or a reduced rate of subsequent cognitive decline."}, "[4]": {"test_system": "male C57BL/6J (B6) mice, aged 18 months", "assay": "Novel Object Recognition test after exogenous adropin^34-76 treatment", "type": "in vivo, mouse", "description": "For the novel object recognition task, mice are habituated to an empty apparatus, a 58×66×11-cm white plastic box, for 5 min a day for 3 consecutive days prior to entry of objects. On the first day of training, mice are placed in the testing apparatus with two identical objects (A and B). 24h later the animal is reintroduced to the arena but this time one of the original objects is removed and a new object (C). Total time spent exploring each of the two objects is recorded. Anxiety will be assessed using open field and elevated plus maze tests. The experimental apparatus consists of a central platform, two open arms and two equal-sized closed arms opposite to each other. The test consisted of placing a mouse in the central platform facing an enclosed arm and allowing it to freely explore the maze for 5 min. The number of entries into the open and closed arms and the time spent in open arms was measure by an observer blind to treatment\nas §2, §3\nA non-amnesic subject will spend more time exploring the novel object than the familiar one. When adropin treated and vehicle treated mice were subjected to the Novel Object Recognition test, adropin treated mice spent more time exploring the novel object (FIG. 11, Table 1)"}, "mice [5]": {"test_system": "mice", "conditions": "subjects with diet-induced obesity; Kumar et al. 2008; Gao et al. 2014, 2015; cited from earlier work"}, "mice [6]": {"test_system": "mice", "assay": "Metabolic effects of administered adropin^34-76 in mice", "type": "in vivo, mouse", "text": "The inventors have engineered transgenic mice that over express adropin (“AdrTG”) in the nervous system and peripheral tissues. […] In addition, reduced JNK phosphorylation and expression of cytokines indicates reduced neuroinflammatory processes. Inflammation is also increasingly considered an important predisposing risk factor for age-related neurodegeneration (Irwin & Vitiello (2019) Lancet Neurol. 18(3):296-306; Madhavan et a., Nat Rev Cardiol. 15(12):744-756). […] In addition, the inventors have also shown that adropin levels may be increased systemically by […] administration. […] (Kumar et al. 2008; Gao et al. 2014, 2015)\nUsing mice, the Inventors have shown that administration of adropin^34-76, in doses as low as 90 nmol/kg/day, delivered as two 45 nmol/kg injections, can be effective in producing changes in metabolism. Dose as high as 900 nmol/kg/d are well tolerated in mice. While the doses required for a desired clinical effect in humans is expected to vary between patients, the 90 nmol/kg dose administered by subcutaneous, intramuscular, or intravenous injection, either once or twice a day, may represent a preferred treatment protocol. […] The optimum dose and frequency for a particular subject may be determined by the patient's treating physician, based on the patient's cognitive response. […]"}, "[7]": {"assay": "Body weight and deaths during 4-week intraperitoneal treatment", "type": "in vivo", "conditions": "group 1, 90 nmol/kg/day intraperitoneal", "description": "as §2, §3"}},
  "note": "Several values for one entry are separate records, joined by “and”; a condition that tells them apart may be missing. Equal values may be shown once.",
  "data": [
    {"substance": "Adropin^34-76 (CHSRSADVDSLSESSPNSSPGPCPEKAPPPQKPSHEGSYLLQP; listed as Homo sapiens)", "values": [
      {"measurement": "T-maze acquisition, Difference between means (Adropin vs. Vehicle)", "setting": "[1]; 95% confidence interval −4.736 to −2.150", "result": "−3.443 ± 0.6301"},
      {"measurement": "T-maze acquisition", "setting": "[1]; individual mice, number of trials to make one active avoidance, 90 nmol/kg/day intraperitoneal", "result": "7. (5×) and 8. (4×) and 9. (2×) and 6. (3×)"},
      {"measurement": "T-maze acquisition, Mean ± SEM", "setting": "[1]; n = 14, P <0.0001 vs. Vehicle", "result": "7.357 ± 0.2695,"},
      {"measurement": "performance in Acquisition T-maze test (in words)", "setting": "[1]; vs placebo treated mice", "result": "improved performance"},
      {"measurement": "T-maze Retention, Difference between means (Adropin vs. Vehicle)", "setting": "[2]; 95% confidence interval −3.121 to −1.565", "result": "−2.343 ± 0.3792"},
      {"measurement": "T-maze Retention", "setting": "[2]; individual mice, retested after 7 days, trials to five active avoidances in six consecutive trials, 90 nmol/kg/day intraperitoneal", "result": "7. (7×) and 8. and 6. (5×) and 9."},
      {"measurement": "T-maze Retention, Mean ± SEM", "setting": "[2]; n = 14, P <0.0001 vs. Vehicle", "result": "6.857 ± 0.2310,"},
      {"measurement": "performance in T-maze retention (in words)", "setting": "[2]; retested after 7 days", "result": "superior performance"},
      {"measurement": "well tolerated dose", "setting": "mice [3]", "result": "≤ 900", "unit": "nmol/kg/day"},
      {"measurement": "Novel Object Recognition % Novel Object, Difference between means (Adropin vs. Vehicle)", "setting": "[4]; 95% confidence interval 2.733 to 27.24", "result": "14.99 ± 5.982", "unit": "%"},
      {"measurement": "Novel Object Recognition test 24 Hour delay % Novel Object", "setting": "[4]; individual mice, 90 nmol/kg/day intraperitoneal, 24 hour delay", "result": "55.56% and 77.50% and 66.67% and 79.10% and 51.06% and 100.00% and 51.61% and 46.43% and 42.86% and 53.06% and 37.50% and 40.74% and 64.58% and 62.50% and 58.82%"},
      {"measurement": "Novel Object Recognition % Novel Object, Mean ± SEM", "setting": "[4]; n = 15, 90 nmol/kg/day intraperitoneal, P 0.0183 vs. Vehicle", "result": "58.88 ± 4.106, n = 15%"},
      {"measurement": "cognitive performance in Novel Object Recognition test (in words)", "setting": "[4]; vs vehicle treated mice", "result": "improved cognitive performance"},
      {"measurement": "metabolic changes after intraperitoneal injection (in words)", "setting": "mice [5]", "result": "metabolic changes suggesting improvements in glucose control and reduced risk for type 2 diabetes"},
      {"measurement": "dose known to affect metabolic control", "setting": "mice [6]; male B6 mice, injection", "result": "about 450 nmol/kg"},
      {"measurement": "dose effective in producing changes in metabolism", "setting": "mice [6]; mice, delivered as two 45 nmol/kg injections", "result": "≥ 90", "unit": "nmol/kg/day"},
      {"measurement": "deaths during treatment", "setting": "[7]", "result": "One mouse in group 1 died"}
    ]}
  ]
}
